In patent US7022689B2, “5-amidino-n-(2-aminophenethyl)-n-hydroxy-benzenesulffonamide derivative, medical composition containing the same, pharmaceutical use thereof and intermediate therefor” (Kissei Pharmaceutical Co., Ltd., priority 2001, dated 2006):
Structures can show the parent of a compound that is named as a salt.

Assays:
[1] = target: T1, human activated blood coagulation factor X (Homo sapiens, UniProt P00742); test: Measurement of inhibitory activity for activated blood coagulation factor X (S-2222 chromogenic substrate); format: biochemical; settings: substrate S-2222, tris-NaCl buffer pH 8.4, 10 minutes at 37° C., absorbance 405 nm
T1 construct: purchased Calbiochem
T1 sequence (P00742 235-488 limits assumed): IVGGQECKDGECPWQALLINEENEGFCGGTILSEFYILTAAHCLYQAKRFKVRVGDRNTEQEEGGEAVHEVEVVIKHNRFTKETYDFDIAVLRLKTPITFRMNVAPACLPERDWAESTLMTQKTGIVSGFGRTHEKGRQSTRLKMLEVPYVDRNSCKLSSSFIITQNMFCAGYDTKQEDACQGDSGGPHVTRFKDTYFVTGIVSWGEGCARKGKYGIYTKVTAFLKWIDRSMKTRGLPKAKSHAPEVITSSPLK
T1 sequence (P00742 41-179 partner limits assumed): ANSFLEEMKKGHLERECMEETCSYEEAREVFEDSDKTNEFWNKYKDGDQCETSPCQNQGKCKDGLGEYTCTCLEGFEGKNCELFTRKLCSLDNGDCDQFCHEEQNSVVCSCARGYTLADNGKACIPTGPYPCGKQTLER
Experimental: Measurement of Inhibitory Activity for Activated Blood Coagulation Factor X 2.5 μL of a dimethylsulfoxide solution of a test compound, 187.5 μL of 100 mM tris-200 mM NaCl buffer (pH 8.4) and 50 μL of 1 mM S-2222 (Daiichi Pure Chemicals) aqueous solution were poured into 96 well microplate. Then 10 μL of 0.6 U/mL human activated blood coagulation factor X (Calbiochem) in gelatin-glycine buffer was added and the mixture was incubated for 10 minutes at 37° C. The reaction was terminated with the addition of 50 μL of 60% acetic acid and absorbance (405 nm) was measured by a microplate reader (SPECTRAmax250, Molecular Devices). The group with 2.5 μL of the dimethylsulfoxide solution instead of the test compound solution was defined as the control, and the group with 10 μL of the gelatin-glycine buffer solution instead of human activated blood coagulation factor X was defined as the blank.

human thrombin = target: T2, human thrombin (Homo sapiens, UniProt P00734); test: Measurement of inhibitory activity for thrombin (S-2238 chromogenic substrate); format: biochemical; settings: substrate S-2238, tris-NaCl buffer pH 8.4, 10 minutes at 37° C., absorbance 405 nm
T2 construct: human thrombin (Sigma Chemical Company); purchased Sigma Chemical Company
Experimental: Measurement of Inhibitory Activity for Thrombin
2.5 μL of a dimethylsulfoxide solution of a test compound, 187.5 μL of 100 mM tris-200 mM NaCl buffer (pH 8.4) and 50 μL of 1 mM S-2238 (Daiichi Pure Chemicals) aqueous solution were poured into 96 well microplate. Then 10 μL of 2.0 U/mL human thrombin (Sigma Chemical Company) in gelatin-glycine buffer was added and the mixture was incubated for 10 minutes at 37° C. The reaction was terminated with the addition of 50 μL of 60% acetic acid and absorbance (405 nm) was measured by a microplate reader (SPECTRAmax250, Molecular Devices).
The group with 2.5 μL of the dimethylsulfoxide solution instead of the test compound solution was defined as the control, and the group with 10 μL of the gelatin-glycine buffer solution instead of human thrombin was defined as the blank. The concentration of a test compound that inhibited the absorbance of control by 50% (IC50) was obtained, and this value was used as the index of inhibitory activity for thrombin.

| Compound | IC50 [1] | IC50 (human thrombin) |
| --- | --- | --- |
| CS(=O)(=O)c1ccccc1-c1ccc(CCNS(=O)(=O)c2cc(C(=N)N)ccc2O)c(NCC(=O)O)c1 [Compound 17, [[4-[2-(5-Carbamimidoyl-2-hydroxybenzenesulfonylamino)ethyl]-2′-methanesulfonylbiphenyl-3-yl]amino]acetic aid hydrochloride] | 7.1 nM | 37000 nM |
| CC(C)c1ccc(CCNS(=O)(=O)c2cc(C(=N)N)ccc2O)c(NCC(=O)O)c1 [Compound 18, [[2-[2-(5-Carbamimidoyl-2-hydroxybenzenesulfonylamino)ethyl]-5-isopropylphenyl]amino]acetic acid] | 77 nM | > 100000 nM |
